Measurements published in ChEMBL document CHEMBL5303573, “Mapping human microbiome drug metabolism by gut bacteria and their genes” (Nature, 2019).

Legend:
[1] = The drug is tested on Alistipes indistinctus strain: DSM22520 for biotransformation. The drug concentrations were measured before and after a 12-h incubation by liquid-chromatography-coupled mass spectrometry (LC–MS); settings: 2 µM
[2] = The drug is tested on Bifidobacterium ruminantium strain: fecal isolate for biotransformation. The drug concentrations were measured before and after a 12-h incubation by liquid-chromatography-coupled mass spectrometry (LC–MS); settings: 2 µM
[3] = The drug is tested on Clostridium ramosum strain: DSM1402 for biotransformation. The drug concentrations were measured before and after a 12-h incubation by liquid-chromatography-coupled mass spectrometry (LC–MS); settings: thomasclavelia ramosa, 2 µM
[4] = The drug is tested on Escherichia coli strain: BW25113 for biotransformation. The drug concentrations were measured before and after a 12-h incubation by liquid-chromatography-coupled mass spectrometry (LC–MS); settings: 2 µM
[5] = bacteroides fragilis, 12 h, 2 µM
Description: The drug is tested on Bacteroides fragilis strain: DS-208 for biotransformation. The drug concentrations were measured before and after a 12-h incubation by liquid-chromatography-coupled mass spectrometry (LC–MS)

[6] = The drug is tested on Anaerococcus hydrogenalis strain: DSM7454 for biotransformation. The drug concentrations were measured before and after a 12-h incubation by liquid-chromatography-coupled mass spectrometry (LC–MS); settings: 2 µM
[7] = The drug is tested on Blautia hansenii strain: DSM20583 for biotransformation. The drug concentrations were measured before and after a 12-h incubation by liquid-chromatography-coupled mass spectrometry (LC–MS); settings: 2 µM
[8] = The drug is tested on Enterobacter cancerogenus strain: ATCC35316 for biotransformation. The drug concentrations were measured before and after a 12-h incubation by liquid-chromatography-coupled mass spectrometry (LC–MS); settings: 2 µM
[9] = The drug is tested on Bacteroides coprophilus strain: DSM18228 for biotransformation. The drug concentrations were measured before and after a 12-h incubation by liquid-chromatography-coupled mass spectrometry (LC–MS); settings: 2 µM
[10] = The drug is tested on Bacteroides vulgatus strain: ATCC8482 for biotransformation. The drug concentrations were measured before and after a 12-h incubation by liquid-chromatography-coupled mass spectrometry (LC–MS); settings: phocaeicola vulgatus, 2 µM
[11] = The drug is tested on Bacteroides uniformis strain: ATCC8492 for biotransformation. The drug concentrations were measured before and after a 12-h incubation by liquid-chromatography-coupled mass spectrometry (LC–MS); settings: 2 µM
[12] = bacteroides thetaiotaomicron, 12 h, 2 µM
Description: The drug is tested on Bacteroides thetaiotaomicron strain: VPI-5482 for biotransformation. The drug concentrations were measured before and after a 12-h incubation by liquid-chromatography-coupled mass spectrometry (LC–MS)

[13] = The drug is tested on Enterococcus faecalis strain: V583 for biotransformation. The drug concentrations were measured before and after a 12-h incubation by liquid-chromatography-coupled mass spectrometry (LC–MS); settings: 2 µM
[14] = victivallis vadensis, 12 h, 2 µM
Description: The drug is tested on Victivallis vadensis strain: ATCC BAA-548 for biotransformation. The drug concentrations were measured before and after a 12-h incubation by liquid-chromatography-coupled mass spectrometry (LC–MS)

[15] = The drug is tested on Bacteroides finegoldii strain: DSM17565 for biotransformation. The drug concentrations were measured before and after a 12-h incubation by liquid-chromatography-coupled mass spectrometry (LC–MS); settings: 2 µM
[16] = The drug is tested on Coprococcus comes strain: ATCC27758 for biotransformation. The drug concentrations were measured before and after a 12-h incubation by liquid-chromatography-coupled mass spectrometry (LC–MS); assay type: ADME; set-up: dose 2 uM, timepoint 0 vs 12 hours; settings: 2 µM
[17] = The drug is tested on Bacteroides dorei strain: DSM17855 for biotransformation. The drug concentrations were measured before and after a 12-h incubation by liquid-chromatography-coupled mass spectrometry (LC–MS); settings: phocaeicola dorei, 2 µM
[18] = roseburia intestinalis, 12 h, 2 µM
Description: The drug is tested on Roseburia intestinalis strain: L1-82 for biotransformation. The drug concentrations were measured before and after a 12-h incubation by liquid-chromatography-coupled mass spectrometry (LC–MS)

[19] = The drug is tested on Parabacteroides merdae strain: ATCC43184 for biotransformation. The drug concentrations were measured before and after a 12-h incubation by liquid-chromatography-coupled mass spectrometry (LC–MS); settings: 2 µM
[20] = bacteroides thetaiotaomicron, 12 h, 2 µM; remark: listed apart in the source
Description: The drug is tested on Bacteroides thetaiotaomicron strain: 7330 for biotransformation. The drug concentrations were measured before and after a 12-h incubation by liquid-chromatography-coupled mass spectrometry (LC–MS)

Compound | Bacterial Biotransformation [1] | Bacterial Biotransformation [2] | Bacterial Biotransformation [3] | Bacterial Biotransformation [4] | Bacterial Biotransformation [5] | Bacterial Biotransformation [6] | Bacterial Biotransformation [7] | Bacterial Biotransformation [8] | Bacterial Biotransformation [9] | Bacterial Biotransformation [10] | Bacterial Biotransformation [11] | Bacterial Biotransformation [12] | Bacterial Biotransformation [13] | Bacterial Biotransformation [14] | Bacterial Biotransformation [15] | Bacterial Biotransformation [16] | Bacterial Biotransformation [17] | Bacterial Biotransformation [18] | Bacterial Biotransformation [19] | Bacterial Biotransformation [20]
CN1C(=O)CCS(=O)(=O)C1c1ccc(Cl)cc1 (stereo unspecified) [CHLORMEZANONE] | Compound metabolized | Compound metabolized | Compound NOT metabolized | Compound NOT metabolized | Compound NOT metabolized | Compound NOT metabolized | Compound metabolized | Compound NOT metabolized | Compound NOT metabolized | Compound metabolized | Compound NOT metabolized | Compound NOT metabolized | Compound NOT metabolized | Compound NOT metabolized | Compound NOT metabolized |  |  |  |  | 
CN1CCc2cccc3c2[C@H]1Cc1ccc(O)c(O)c1-3 [APOMORPHINE] | Compound NOT metabolized | Compound NOT metabolized | Compound NOT metabolized | Compound NOT metabolized | Compound NOT metabolized | Compound NOT metabolized | Compound NOT metabolized | Compound NOT metabolized |  | Compound NOT metabolized | Compound NOT metabolized | Compound NOT metabolized | Compound NOT metabolized | Compound NOT metabolized | Compound NOT metabolized | Compound NOT metabolized | Compound NOT metabolized | Compound NOT metabolized | Compound NOT metabolized | Compound NOT metabolized
CN1C[C@H](C(=O)N[C@]2(C)O[C@@]3(O)[C@@H]4CCCN4C(=O)[C@H](Cc4ccccc4)N3C2=O)C=C2c3cccc4[nH]cc(c34)C[C@H]21.CN1C[C@H](C(=O)N[C@]2(C)O[C@@]3(O)[C@@H]4CCCN4C(=O)[C@H](Cc4ccccc4)N3C2=O)C=C2c3cccc4[nH]cc(c34)C[C@H]21.O=C(O)C(O)C(O)C(=O)O [ERGOTAMINE TARTRATE] | Compound NOT metabolized | Compound metabolized | Compound metabolized | Compound metabolized | Compound metabolized | Compound metabolized | Compound metabolized | Compound metabolized | Compound metabolized | Compound metabolized | Compound metabolized | Compound metabolized | Compound NOT metabolized | Compound metabolized | Compound metabolized |  | Compound metabolized | Compound NOT metabolized | Compound metabolized | Compound metabolized
CC(C)(C)NCC(O)c1cc(Cl)c(N)c(Cl)c1 (stereo unspecified) [CLENBUTEROL] | Compound NOT metabolized |  | Compound NOT metabolized | Compound NOT metabolized | Compound NOT metabolized | Compound NOT metabolized | Compound NOT metabolized | Compound NOT metabolized | Compound NOT metabolized | Compound NOT metabolized | Compound NOT metabolized | Compound NOT metabolized | Compound NOT metabolized | Compound NOT metabolized | Compound NOT metabolized | Compound NOT metabolized | Compound NOT metabolized | Compound NOT metabolized | Compound NOT metabolized | 
